Measured values as given in paper PMC6112376, “Comprehensive Analyses and Prioritization of Tox21 10K Chemicals Affecting Mitochondrial Function by in-Depth Mechanistic Studies” (Environmental Health Perspectives, 2018).
Like-named read-outs stand apart in the source and are kept apart here.

Assays:
[1] = tested on: HepG2 cells; details: HepG2 cells, single number from one experiment; for IC50: read-out: MMP assays IC50 (µM) HepG2
[2] = tested on: HepG2 cells; details: cited from earlier work
[3] = tested on: rat primary hepatocytes; test: MMP assay in rat primary hepatocytes; details: for IC50: read-out: MMP assays IC50 (µM) Rat Hepatocytes
[4] = tested on: isolated rat liver mitochondria; test: Oxygen consumption, Clark-type oxygen electrode; type: biochemical; details: for I-ADP, % of control (O2 consumption rate): glutamate/malate driven state 3 respiration; for I-ADP, % of control (O2 consumption rate) / I-sub, % of control (O2 consumption rate) / II-ADP, % of control (O2 consumption rate) / II-sub, % of control (O2 consumption rate): isolated rat liver mitochondria; for I-sub, % of control (O2 consumption rate): glutamate/malate driven state 4 respiration; for II-ADP, % of control (O2 consumption rate): succinate-driven state 3 respiration; for II-sub, % of control (O2 consumption rate): succinate-driven state 4 respiration
[5] = tested on: HepG2 cells; test: cells; details: Homo sapiens; for IC50: HepG2, read-out: MMP assays IC50 (µM) HepG2; for Emax: HepG2, read-out: MMP assays efficacy (%) HepG2
[6] = read-out: MMP assays IC50 (µM) qHTS-HepG2
[7] = rat hepatocytes, mean ± SD of three experiments
[8] = read-out: MMP assays IC50 (µM), qHTS-HepG2

Structure (SMILES) | MMP assays efficacy (%) qHTS-HepG2 [2] [%] | IC50 [2, 6] [µM] | MMP assays efficacy (%) Rat Hepatocytes [3, 7] | IC50 [5] [µM] | Emax [5] [%] | IC50 ([3]; Rattus norvegicus, Hepatocyte) [µM] | also measured
CC(C)(c1cc(Br)c(OCCO)c(Br)c1)c1cc(Br)c(OCCO)c(Br)c1 | -97±15 | 6.21 ± 0.42 | -88±17% | – | – | – | MMP assays efficacy (%) HepG2 [1]: -99%; IC50 [1]: 11 µM; IC50 [3, 7]: 32.8 ± 2.67 µM
CCC(=O)O[C@]1(C(=O)SCF)[C@H](C)C[C@H]2[C@@H]3C[C@H](F)C4=CC(=O)C=C[C@]4(C)[C@@]3(F)[C@@H](O)C[C@@]21C [Fluticasone propionate] | -58±17 | – | inactive | – | – | – | MMP assays IC50 (µM) HepG2 [1]: inactive; MMP assays efficacy (%) HepG2 [1]: inactive; IC50 [2, 8]: 9.02 ± 1.71 µM; MMP assays IC50 (µM) Rat Hepatocytes [3, 7]: inactive
CCCCCCCC[n+]1ccn(C)c1.F[B-](F)(F)F [1-Methyl-3-octylimidazolium tetrafluoroborate] | -73±29 | 5.66 ± 5.82 | -76±29% | – | – | – | MMP assays efficacy (%) HepG2 [1]: -115%; IC50 [1]: 19.9 µM; IC50 [3, 7]: 43.4 ± 7.4 µM
CC[C@H](NC(=O)c1cc(F)ccc1[N-]S(=O)(=O)c1cccc2cccnc12)c1ccccc1.[Na+] | -101±14 | – | -84±50% | – | – | – | MMP assays efficacy (%) HepG2 [1]: -98%; IC50 [1]: 11.2 µM; IC50 [2, 8]: 4.42 ± 6.97 µM; IC50 [3, 7]: 35.9 ± 20.2 µM
CCCCCCCC[n+]1ccn(C)c1.F[P-](F)(F)(F)(F)F [1-Methyl-3-octylimidazolium hexafluorophosphate] | – | – | -86±43% | – | – | – | MMP assays efficacy (%) HepG2 [1]: -77%; IC50 [1]: 25.1 µM; IC50 [3, 7]: 39.8 µM
NNc1nc(-c2ccc([N+](=O)[O-])cc2)cs1 [2-Hydrazino-4-(4-nitrophenyl) thiazole] | – | – | – | – | – | – | I-ADP, % of control (O2 consumption rate) ([4]; 20 µM): 103 (50.6) % of control; I-sub, % of control (O2 consumption rate) ([4]; 20 µM): 119 (19.1) % of control; II-ADP, % of control (O2 consumption rate) ([4]; 20 µM): 98 (76.1) % of control; II-sub, % of control (O2 consumption rate) ([4]; 20 µM): 99 (30.4) % of control; I-ADP, % of control (O2 consumption rate) ([4]; 100 µM): 61 (32.3) % of control; I-sub, % of control (O2 consumption rate) ([4]; 100 µM): 159 (21.4) % of control; II-ADP, % of control (O2 consumption rate) ([4]; 100 µM): 114 (77.1) % of control; II-sub, % of control (O2 consumption rate) ([4]; 100 µM): 153 (33.1) % of control; Potential Mechanism ([4]; mitochondrial respiration in isolated rat liver mitochondria, Clark type oxygen electrode, over tested concentrations): Uncoupler + inhibitor
CCCCCCCCCCCCn1cc[n+](C)c1.F[P-](F)(F)(F)(F)F | – | – | -111±27% | – | – | – | MMP assays efficacy (%) HepG2 [1]: -119%; IC50 [1]: 5.01 µM; IC50 [3, 7]: 8.81 ± 2.46 µM
CCCCCCCCCCCCOC(=O)c1cc(O)c(O)c(O)c1 [Dodecyl gallate] | -99±8 | 4.75 ± 1.81 | -65±17% | 7.94 | 100 | 48.7 ± 8.3 | –
Oc1ccc(-c2ccccc2)cc1Cl [Compound 2-Chloro-4-phenylphenol] | -138±26 | 15.4 ± 7.86 | -109±36% | 15.8 | 99 | 31.8 ± 3.65 | –
C(=C(c1ccccc1)c1ccccc1)c1ccccc1 [Triphenylethylene] | -88±31 | – | -74±30% | 31.6 | 54 | 15.2 ± 11.5 | IC50 [2, 8]: 35.7 ± 14.8 µM
Oc1c2ccccc2c2c3c(cccc13)N=N2 [SP600125] | -97±10 | – | -82±45% | 1.55 | 105 | 21.1 ± 2.91 | IC50 [2, 8]: 0.92 ± 0.14 µM
CCCCCCCCCCCCCC[P+](CCCCCC)(CCCCCC)CCCCCC.F[P-](F)(F)(F)(F)F [Trihexyltetradecylphosphonium hexafluorophosphate] | – | – | inactive | – | – | – | MMP assays efficacy (%) HepG2 [1]: -91%; IC50 [1]: 1.12 µM; MMP assays IC50 (µM) Rat Hepatocytes [3, 7]: inactive
CC(C)(C)c1ccc(OC(=O)c2ccccc2O)cc1 [4-tert-Butylphenyl salicylate] | -78±23 | 28.4 ± 3.64 | inactive | 35.5 | 90 | – | MMP assays IC50 (µM) Rat Hepatocytes [3, 7]: inactive
CC(C)(C)c1ccc(O)c(O)c1 [Compound 4-tert-Butylcatechol] | -103±20 | 34.3 ± 15 | inactive | 31.6 | 90 | – | MMP assays IC50 (µM) Rat Hepatocytes [3, 7]: inactive
Oc1ccc(/N=N/c2ccccc2)cc1 [p-Phenylazophenol] | -96±7 | – | inactive | 10 | 107 | – | IC50 [2, 8]: 4.06 ± 1.23 µM; MMP assays IC50 (µM) Rat Hepatocytes [3, 7]: inactive
O=C1OC(=O)c2cccc3cccc1c23 [1H,3H-Naphtho(1,8-cd)pyran-1,3-dione] | -51±8 | 3.89 ± 1.12 | inactive | 7.94 | 63 | – | MMP assays IC50 (µM) Rat Hepatocytes [3, 7]: inactive
Cc1cc(O)c(C(C)(C)C)cc1Sc1cc(C(C)(C)C)c(O)cc1C [4,4'-Thiobis(6-tert-butyl-m-cresol)] | -104±19 | 1.86 ± 1.18 | -78±17% | 3.16 | 115 | 24.8 ± 11.8 | –
CC(C)(C)c1ccc(O)c(C(C)(C)C)c1 [2,4-Di-tert-butylphenol] | -95±5 | 3.5 ± 0.73 | -131±66% | 3.98 | 101 | 24 ± 16.6 | –
Cc1c(Nc2ncccc2C(=O)O)cccc1C(F)(F)F [Flunixin meglumine] | -123±14 | – | -107±11% | 7.4 | 83 | 5.77 ± 4.59 | IC50 [2, 8]: 9.02 µM
O=c1cc(-c2ccccc2)oc2cc(O)cc(O)c12 [Chrysin] | -103±9 | 5.05 ± 2.76 | -78±36% | 7.08 | 105 | 30.6 ± 28.4 | –
CC(O)(c1ccc(Cl)cc1)c1ccc(Cl)cc1 [Chlorfenethol] | -110±19 | 26.3 ± 7.53 | -90±2% | 12.6 | 100 | 18.9 ± 5.35 | –
C#C[C@]1(O)CC[C@H]2[C@@H]3CCC4=CC(=NO)CC[C@@H]4[C@H]3CC[C@@]21CC (mixture of isomers) [Norelgestromin] | -122±2 | – | -55±21% | 19.4 | 121 | 13.4 ± 12.3 | IC50 [2, 8]: 13.5 ± 6.64 µM
CCOc1ccc(/N=N/c2ccc(N)cc2N)cc1 [Ethoxazene] | -91±7 | 2.7 ± 1.13 | -106±32% | 2.82 | 94 | 4.96 ± 3.42 | –
Cc1ccc2c(Cl)cc(Cl)c(O)c2n1 [5,7-Dichloro-8-hydroxy-2-methylquinoline] | -120±20 | 11 ± 2 | inactive | 1.38 | 60 | – | MMP assays IC50 (µM) Rat Hepatocytes [3, 7]: inactive
